molecular target: T1, GPR43 (Homo sapiens, UniProt O15552); assay: Calcium mobilization assay with probenecid; type: cell-based; conditions: GPR43 stably expressing cells; triggered with sodium acetate at EC80; 2.5 mM probenecid; read-out: GPR43 assay with probenicid IC50
T1 construct: expressed in transfected cells
T1 sequence (O15552 1-330): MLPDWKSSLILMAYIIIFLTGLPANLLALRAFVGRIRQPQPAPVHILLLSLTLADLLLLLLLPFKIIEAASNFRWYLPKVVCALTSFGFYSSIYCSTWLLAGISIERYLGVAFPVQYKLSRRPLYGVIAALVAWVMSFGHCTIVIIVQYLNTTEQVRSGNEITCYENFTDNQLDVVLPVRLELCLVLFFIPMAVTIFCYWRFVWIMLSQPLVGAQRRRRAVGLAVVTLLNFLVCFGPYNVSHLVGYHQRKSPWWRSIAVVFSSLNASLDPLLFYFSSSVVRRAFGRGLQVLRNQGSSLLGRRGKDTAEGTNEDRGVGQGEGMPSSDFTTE
Method in brief: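 Cells stably expressing GPR43 plated overnight at 37 °C, then loaded 2 h with Calcium 4 dye plus 2.5 mM probenecid. […]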

| Structure (SMILES) | IC50 [nM] |
| --- | --- |
| COc1cccc(CC2(C(=O)N(CCCC(=O)NS(C)(=O)=O)Cc3cccc(Cl)c3)CCN2C(=O)c2csc3ccccc23)c1 (stereo not drawn) [Compound 242, 1-(benzo[b]thiophene-3-carbonyl)-N-(3-chlorobenzyl)-2-(3-methoxybenzyl)-N-(4-(methylsulfonamido)-4-oxobutyl)azetidine-2-carboxamide] | 501 to 1000 |
| CS(=O)(=O)NC(=O)CCCN(Cc1cccc(Cl)c1)C(=O)C1(Cc2ccccc2F)CCN1C(=O)c1csc2ccccc12 (stereo not drawn) [Compound 243, 1-(benzo[b]thiophene-3-carbonyl)-N-(3-chlorobenzyl)-2-(2-fluorobenzyl)-N-(4-(methylsulfonamido)-4-oxobutyl)azetidine-2-carboxamide] | 501 to 1000 |
| CC[C@]1(C(=O)N(CCCS(N)(=O)=O)[C@@H](C)c2ccc(Cl)cc2)CCN1C(=O)c1csc2ccccc12 [Compound 244, (R)-1-(benzo[b]thiophene-3-carbonyl)-N-((S)-1-(4-chlorophenyl)ethyl)-2-ethyl-N-(3-sulfamoylpropyl)azetidine-2-carboxamide] | > 1000 |
| CC[C@@]1(C(=O)N(CCCS(N)(=O)=O)[C@@H](C)c2ccc(Cl)cc2)CCN1C(=O)c1csc2ccccc12 [Compound 245, (S)-1-(benzo[b]thiophene-3-carbonyl)-N-((S)-1-(4-chlorophenyl)ethyl)-2-ethyl-N-(3-sulfamoylpropyl)azetidine-2-carboxamide] | 101 to 500 |
| CCC1(C(=O)N(CCCS(N)(=O)=O)c2ccc(Cl)cc2)CCN1C(=O)c1csc2ccccc12 (stereo not drawn) [Compound 246, 1-(benzo[b]thiophene-3-carbonyl)-N-(4-chlorophenyl)-2-ethyl-N-(3-sulfamoylpropyl)azetidine-2-carboxamide] | 101 to 500 |
| COc1ccccc1CC1(C(=O)N(CCCC(=O)O)Cc2cccc(Cl)c2)CCN1C(=O)c1csc2ccccc12 (stereo not drawn) [Compound 247, 4-(1-(benzo[b]thiophene-3-carbonyl)-N-(3-chlorobenzyl)-2-(2-methoxybenzyl)azetidine-2-carboxamido)butanoic acid] | > 1000 |
| CC1(C(=O)N(CCCC(=O)O)c2cccc(Cl)c2)CCN1C(=O)c1csc2ccccc12 (stereo not drawn) [Compound 248, 4-(1-(benzo[b]thiophene-3-carbonyl)-N-(3-chlorophenyl)-2-methylazetidine-2-carboxamido)butanoic acid] | 101 to 500 |
| CC1(C(=O)N(CCCC(=O)O)c2ccc(Cl)nc2)CCN1C(=O)c1csc2ccccc12 (stereo not drawn) [Compound 249, 4-(1-(benzo[b]thiophene-3-carbonyl)-N-(6-chloropyridin-3-yl)-2-methylazetidine-2-carboxamido)butanoic acid] | > 1000 |
| CC1(C(=O)N(CCCC(=O)O)c2ccc(Cl)cn2)CCN1C(=O)c1csc2ccccc12 (stereo not drawn) [Compound 250, 4-(1-(benzo[b]thiophene-3-carbonyl)-N-(5-chloropyridin-2-yl)-2-methylazetidine-2-carboxamido)butanoic acid] | 501 to 1000 |
| CC1(C(=O)N(CCCC(=O)O)c2cccc(C(F)(F)F)c2)CCN1C(=O)c1csc2ccccc12 (stereo not drawn) [Compound 251, 4-(1-(benzo[b]thiophene-3-carbonyl)-2-methyl-N-(3-(trifluoromethyl)phenyl)azetidine-2-carboxamido)butanoic acid] | 101 to 500 |
| CC1(C(=O)N(CCCC(=O)O)c2cc(Cl)ccn2)CCN1C(=O)c1csc2ccccc12 (stereo not drawn) [Compound 252, 4-(1-(benzo[b]thiophene-3-carbonyl)-N-(4-chloropyridin-2-yl)-2-methylazetidine-2-carboxamido)butanoic acid] | 501 to 1000 |
| CC1(C(=O)N(CCCC(=O)O)c2ccccn2)CCN1C(=O)c1csc2ccccc12 (stereo not drawn) [Compound 253, 4-(1-(benzo[b]thiophene-3-carbonyl)-2-methyl-N-(pyridin-2-yl)azetidine-2-carboxamido)butanoic acid] | > 1000 |
